Measured values: the NIST ThermoML archive (doi:10.1016/j.jct.2013.09.015)
Numbers after ± are expanded uncertainties.

Experiments:
[1] = 298.15 K, 101.33 kPa, Liquid; for speed of sound: Sing-around technique in a fixed-path interferometer; for mass density: Vibrating tube method
[2] = excess molar enthalpy (molar enthalpy of mixing); xn = mol fraction of the nth substance listed; conditions: 298.15 K, 101 kPa, Liquid, Calvet calorimetry

CCn1cc[n+](C)c1.F[B-](F)(F)F [1-ethyl-3-methylimidazolium tetrafluoroborate]
[1]
Conditions | mass density [kg/m3] | speed of sound [m/s]
– | 1279.91 ± 1.5 | 1619.4 ± 2.4

CCn1cc[n+](C)c1.F[B-](F)(F)F [1-ethyl-3-methylimidazolium tetrafluoroborate] + O
[2]
Conditions | excess molar enthalpy [kcal/mol]
x1 = 0.1136 | 0.0374 ± 0.0186
x1 = 0.1678 | 0.0537 ± 0.0263
x1 = 0.2249 | 0.0693 ± 0.0335
x1 = 0.2734 | 0.0812 ± 0.0406
x1 = 0.331 | 0.0934 ± 0.0478
x1 = 0.3615 | 0.0989 ± 0.0502
x1 = 0.4325 | 0.109 ± 0.055
x1 = 0.4709 | 0.112 ± 0.0574
x1 = 0.5314 | 0.115 ± 0.0574
x1 = 0.5722 | 0.115 ± 0.0574
x1 = 0.6291 | 0.113 ± 0.0574
x1 = 0.6685 | 0.109 ± 0.055
x1 = 0.7311 | 0.0986 ± 0.0502
x1 = 0.771 | 0.0898 ± 0.0454
x1 = 0.8324 | 0.0724 ± 0.0359
x1 = 0.8694 | 0.0596 ± 0.0287
x1 = 0.9103 | 0.0434 ± 0.0217
x1 = 0.9311 | 0.0343 ± 0.0172

O=C1CCCN1 [2-pyrrolidinone]
[1]
Conditions | mass density [kg/m3] | speed of sound [m/s]
– | 1107.15 ± 0.23 | 1633.9 ± 1.5

O=C1CCCN1 [2-pyrrolidinone] + O
[2]
Conditions | excess molar enthalpy [kcal/mol]
x1 = 0.1013 | -0.0589 ± 0.0287
x1 = 0.136 | -0.0776 ± 0.0382
x1 = 0.1745 | -0.0978 ± 0.0478
x1 = 0.2319 | -0.125 ± 0.0621
x1 = 0.2775 | -0.145 ± 0.0717
x1 = 0.3351 | -0.166 ± 0.0837
x1 = 0.3813 | -0.18 ± 0.0908
x1 = 0.4343 | -0.193 ± 0.0956
x1 = 0.4783 | -0.2 ± 0.1
x1 = 0.5401 | -0.205 ± 0.103
x1 = 0.5713 | -0.206 ± 0.103
x1 = 0.6264 | -0.201 ± 0.1
x1 = 0.6771 | -0.192 ± 0.0956
x1 = 0.7314 | -0.177 ± 0.0884
x1 = 0.7693 | -0.162 ± 0.0813
x1 = 0.8326 | -0.13 ± 0.0645
x1 = 0.8951 | -0.0899 ± 0.0454
x1 = 0.9204 | -0.0708 ± 0.0359

O=C1CCCN1 [2-pyrrolidinone] + c1ccncc1
[2]
Conditions | excess molar enthalpy [kcal/mol]
x1 = 0.1213 | 0.0217 ± 0.0108
x1 = 0.1715 | 0.029 ± 0.0146
x1 = 0.2336 | 0.0366 ± 0.0182
x1 = 0.2615 | 0.0394 ± 0.0198
x1 = 0.3255 | 0.0446 ± 0.0222
x1 = 0.3701 | 0.0471 ± 0.0237
x1 = 0.4291 | 0.0489 ± 0.0239
x1 = 0.4711 | 0.0493 ± 0.0239
x1 = 0.5256 | 0.0485 ± 0.0239
x1 = 0.5713 | 0.0469 ± 0.0234
x1 = 0.6364 | 0.0431 ± 0.0215
x1 = 0.6716 | 0.0404 ± 0.0203
x1 = 0.7315 | 0.0348 ± 0.0174
x1 = 0.7619 | 0.0315 ± 0.0158
x1 = 0.8311 | 0.0232 ± 0.0117
x1 = 0.8751 | 0.0174 ± 0.0086
x1 = 0.9204 | 0.0112 ± 0.00574
x1 = 0.9344 | 0.00927 ± 0.00454

CN1CCCC1=O [N-methylpyrrolidone]
[1]
Conditions | mass density [kg/m3] | speed of sound [m/s]
– | 1028.23 ± 0.25 | 1546 ± 1.6

c1ccncc1 [pyridine]
[1]
Conditions | mass density [kg/m3] | speed of sound [m/s]
– | 978.252 ± 0.2 | 1417.8 ± 1.5

c1ccncc1 [pyridine] + CN1CCCC1=O
[2]
Conditions | excess molar enthalpy [kcal/mol]
x2 = 0.0911 | -0.0363 ± 0.0182
x2 = 0.1426 | -0.052 ± 0.0263
x2 = 0.1985 | -0.0669 ± 0.0335
x2 = 0.2312 | -0.0755 ± 0.0382
x2 = 0.2854 | -0.086 ± 0.043
x2 = 0.312 | -0.0903 ± 0.0454
x2 = 0.3789 | -0.097 ± 0.0478
x2 = 0.443 | -0.103 ± 0.0526
x2 = 0.4995 | -0.104 ± 0.0526
x2 = 0.5478 | -0.102 ± 0.0502
x2 = 0.5851 | -0.1 ± 0.0502
x2 = 0.6359 | -0.0959 ± 0.0478
x2 = 0.6982 | -0.0895 ± 0.0454
x2 = 0.725 | -0.0852 ± 0.043
x2 = 0.7732 | -0.0742 ± 0.0382
x2 = 0.8489 | -0.0552 ± 0.0287
x2 = 0.8923 | -0.0427 ± 0.0213
x2 = 0.9156 | -0.0345 ± 0.0172
